Reference: ChEMBL document CHEMBL6153102, “Rational Design, Synthesis, and Biological Evaluation of Novel c-Met Degraders for Lung Cancer Therapy” (J Med Chem, 2025)
Calls of active or inactive are those of the source. The calls are words filed in the database; no cut-off is given here.

Key:
[1] = biological target: T1, Protein cereblon/Hepatocyte growth factor receptor (Homo sapiens, UniProt P08581+Q96SW2); assay: PROTAC activity at c-Met/CRBN in human HCT-116 cells assessed as induction of c-Met degradation at 100 nM incubated for 24 hrs by Western blotting analysis relative to control; format: cell-based
[2] = biological target: T1, Protein cereblon/Hepatocyte growth factor receptor; assay: PROTAC activity at c-Met/CRBN in human A549 cells assessed as induction of c-Met degradation at 100 nM incubated for 24 hrs by Western blotting analysis relative to control; format: cell-based
[3] = biological target: T1, Protein cereblon/Hepatocyte growth factor receptor; assay: PROTAC activity at c-Met/CRBN in human EBC-1 cells assessed as induction of c-Met degradation at 100 nM incubated for 24 hrs by Western blotting analysis relative to control; format: cell-based
EBC-1 [4] = assay: Antitumor activity against human EBC-1 cells xenografted BALB/c nude mouse assessed as reduction in tumor volume at 20 mg/kg, ip administered for 7 days; format: functional; parameters: scale not given: the % may be the effect or the level left; conditions: time 7 day
MKN-45 = assay: Antiproliferative activity against human MKN-45 cells assessed as cell viability incubated for 72 hrs by MTT assay; format: functional, cell-based; conditions: MKN-45, 72 h
Hs746T = assay: Antiproliferative activity against human Hs746T cells assessed as cell viability incubated for 72 hrs by MTT assay; format: functional, cell-based
A549 = assay: Antiproliferative activity against human A549 cells assessed as cell viability incubated for 72 hrs by MTT assay; format: functional, cell-based; conditions: A549, 72 h
HCT-116 = assay: Antiproliferative activity against human HCT-116 cells assessed as cell viability incubated for 72 hrs by MTT assay; format: functional, cell-based; conditions: HCT-116, 72 h
EBC-1 [5] = assay: Antiproliferative activity against human EBC-1 cells assessed as cell viability incubated for 72 hrs by MTT assay; format: functional, cell-based; conditions: EBC-1, 72 h

T1 sequence (P08581 25-1390 limits assumed): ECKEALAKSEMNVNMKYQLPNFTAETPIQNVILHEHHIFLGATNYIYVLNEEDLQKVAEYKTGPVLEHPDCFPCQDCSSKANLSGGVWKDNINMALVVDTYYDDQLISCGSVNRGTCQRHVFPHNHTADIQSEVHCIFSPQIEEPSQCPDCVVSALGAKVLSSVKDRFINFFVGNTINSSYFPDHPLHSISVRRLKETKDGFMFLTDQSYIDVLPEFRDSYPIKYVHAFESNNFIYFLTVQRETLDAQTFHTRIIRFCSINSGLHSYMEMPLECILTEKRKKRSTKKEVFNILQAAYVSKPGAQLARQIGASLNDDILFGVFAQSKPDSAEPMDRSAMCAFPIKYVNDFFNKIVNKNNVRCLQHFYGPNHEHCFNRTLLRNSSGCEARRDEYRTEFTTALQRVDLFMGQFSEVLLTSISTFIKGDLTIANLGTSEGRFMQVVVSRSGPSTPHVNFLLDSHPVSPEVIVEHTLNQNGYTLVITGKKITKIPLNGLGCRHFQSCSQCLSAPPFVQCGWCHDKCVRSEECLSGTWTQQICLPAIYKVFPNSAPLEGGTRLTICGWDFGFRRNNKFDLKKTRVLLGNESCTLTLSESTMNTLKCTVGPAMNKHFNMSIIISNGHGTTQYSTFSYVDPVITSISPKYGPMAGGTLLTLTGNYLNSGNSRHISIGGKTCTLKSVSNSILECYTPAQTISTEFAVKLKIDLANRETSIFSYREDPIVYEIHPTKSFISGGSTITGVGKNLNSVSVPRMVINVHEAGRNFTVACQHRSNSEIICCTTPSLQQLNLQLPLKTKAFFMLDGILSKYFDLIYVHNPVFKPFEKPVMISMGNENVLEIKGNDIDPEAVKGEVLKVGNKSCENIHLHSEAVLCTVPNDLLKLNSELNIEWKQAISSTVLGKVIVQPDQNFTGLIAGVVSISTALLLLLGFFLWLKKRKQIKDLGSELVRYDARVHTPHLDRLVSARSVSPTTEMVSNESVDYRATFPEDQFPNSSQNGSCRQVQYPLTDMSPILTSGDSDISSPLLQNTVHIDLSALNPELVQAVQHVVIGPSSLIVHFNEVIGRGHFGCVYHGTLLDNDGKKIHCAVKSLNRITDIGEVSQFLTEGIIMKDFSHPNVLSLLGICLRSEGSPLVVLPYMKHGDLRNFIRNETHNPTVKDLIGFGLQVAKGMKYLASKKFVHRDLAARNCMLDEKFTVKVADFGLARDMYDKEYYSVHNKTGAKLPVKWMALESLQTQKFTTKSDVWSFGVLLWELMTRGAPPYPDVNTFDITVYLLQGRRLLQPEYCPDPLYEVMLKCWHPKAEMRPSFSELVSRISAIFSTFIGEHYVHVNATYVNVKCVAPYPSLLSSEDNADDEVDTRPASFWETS
T1 sequence (Q96SW2 whole entry partner): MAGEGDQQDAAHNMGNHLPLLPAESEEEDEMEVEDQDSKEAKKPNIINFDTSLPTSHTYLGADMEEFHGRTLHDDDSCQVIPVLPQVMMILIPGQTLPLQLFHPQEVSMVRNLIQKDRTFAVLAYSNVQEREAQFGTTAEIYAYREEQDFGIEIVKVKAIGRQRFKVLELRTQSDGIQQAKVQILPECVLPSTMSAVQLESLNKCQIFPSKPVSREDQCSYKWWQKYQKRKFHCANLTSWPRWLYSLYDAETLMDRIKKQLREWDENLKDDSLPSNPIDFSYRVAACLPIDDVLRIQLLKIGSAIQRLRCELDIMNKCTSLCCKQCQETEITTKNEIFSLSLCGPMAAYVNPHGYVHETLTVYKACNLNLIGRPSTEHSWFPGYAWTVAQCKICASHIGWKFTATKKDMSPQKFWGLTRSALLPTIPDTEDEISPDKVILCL

## COc1ccc(C(=O)NCCCCCCN2CCC(COc3cnc(-c4cccc(Cn5nc(-c6cccc(C#N)c6)ccc5=O)c4)nc3)CC2)cc1N1CCC(=O)NC1=O
[1]
  Activity: inactive
[2]
  Activity: inactive
[3]
  Activity: inactive

## CC(C)Cc1ccc([C@H](C)C(=O)N2CCC(COc3cnc(-c4cccc(Cn5nc(-c6cccc(C#N)c6)ccc5=O)c4)nc3)CC2)cc1
[1]
  Activity: inactive
[2]
  Activity: inactive
[3]
  Activity: 23.3%

## CC(C)Cc1ccc([C@H](C)C(=O)NCCCCC(=O)N2CCC(COc3cnc(-c4cccc(Cn5nc(-c6cccc(C#N)c6)ccc5=O)c4)nc3)CC2)cc1
[1]
  Activity: inactive
[2]
  Activity: inactive
[3]
  Activity: inactive

## COc1ccc(C(=O)N2CCC3(CCN(C(=O)CCCCN4CCC(COc5cnc(-c6cccc(Cn7nc(-c8cccc(C#N)c8)ccc7=O)c6)nc5)CC4)CC3)CC2)cc1N1CCC(=O)NC1=O
[1]
  Activity: inactive
[2]
  Activity: inactive
[3]
  Activity: 83.7%

## CN1CCC(COc2cnc(-c3cccc(Cn4nc(-c5cccc(C#N)c5)ccc4=O)c3)nc2)CC1 [TEPOTINIB]
EBC-1 [4]
  Activity: 74.5%
MKN-45
  IC50: 63 nM
Hs746T
  IC50: 38 nM
A549
  IC50: 13500 nM
HCT-116
  IC50: 4940 nM
EBC-1 [5]
  IC50: 12 nM

## N#Cc1cccc(-c2ccc(=O)n(Cc3cccc(-c4ncc(OCC5CCN(C(=O)C(c6ccccc6)c6ccccc6)CC5)cn4)c3)n2)c1
[1]
  Activity: inactive
[2]
  Activity: inactive
[3]
  Activity: 2.7%

## N#Cc1cccc(-c2ccc(=O)n(Cc3cccc(-c4ncc(OCC5CCN(C(=O)C[C@]67CC8CC(C[C@H](C8)C6)C7)CC5)cn4)c3)n2)c1
[1]
  Activity: inactive
[2]
  Activity: inactive
[3]
  Activity: 1.5%

## N#Cc1cccc(-c2ccc(=O)n(Cc3cccc(-c4ncc(OCC5CCN(C(=O)C6c7ccccc7-c7ccccc76)CC5)cn4)c3)n2)c1
[1]
  Activity: inactive
[2]
  Activity: inactive
[3]
  Activity: 13.4%

## COc1ccc(C(=O)N2CCC3(CCN(C(=O)CCCCCN4CCC(COc5cnc(-c6cccc(Cn7nc(-c8cccc(C#N)c8)ccc7=O)c6)nc5)CC4)CC3)CC2)cc1N1CCC(=O)NC1=O
[1]
  Activity: inactive
[2]
  Activity: inactive
[3]
  Activity: 79.1%

## COc1ccc(C(=O)N2CCN(C(=O)CN3CCC(COc4cnc(-c5cccc(Cn6nc(-c7cccc(C#N)c7)ccc6=O)c5)nc4)CC3)CC2)cc1N1CCC(=O)NC1=O
[1]
  Activity: inactive
[2]
  Activity: inactive
[3]
  Activity: inactive

## COc1ccc(C(=O)N2CC3CN(C(=O)CN4CCC(COc5cnc(-c6cccc(Cn7nc(-c8cccc(C#N)c8)ccc7=O)c6)nc5)CC4)CC3C2)cc1N1CCC(=O)NC1=O (stereo not given)
[1]
  Activity: inactive
[2]
  Activity: inactive
[3]
  Activity: inactive

## N#Cc1cccc(-c2ccc(=O)n(Cc3cccc(-c4ncc(OCC5CCN(C(=O)CCCCNC(=O)C(c6ccccc6)c6ccccc6)CC5)cn4)c3)n2)c1
[1]
  Activity: inactive
[2]
  Activity: inactive
[3]
  Activity: 4.4%

## COc1ccc(C(=O)N2CC3CC(CN(C(=O)CN4CCC(COc5cnc(-c6cccc(Cn7nc(-c8cccc(C#N)c8)ccc7=O)c6)nc5)CC4)C3)C2)cc1N1CCC(=O)NC1=O
[1]
  Activity: inactive
[2]
  Activity: inactive
[3]
  Activity: inactive

## N#Cc1cccc(-c2ccc(=O)n(Cc3cccc(-c4ncc(OCC5CCN(C(=O)CCCCNC(=O)C6CC7C=CC6C7)CC5)cn4)c3)n2)c1 (stereo not given)
[1]
  Activity: inactive
[2]
  Activity: inactive
[3]
  Activity: 12.4%

## COc1ccc(C(=O)N2CCC3(CC2)CN(C(=O)CN2CCC(COc4cnc(-c5cccc(Cn6nc(-c7cccc(C#N)c7)ccc6=O)c5)nc4)CC2)C3)cc1N1CCC(=O)NC1=O
[1]
  Activity: inactive
[2]
  Activity: inactive
[3]
  Activity: 37.7%

## N#Cc1cccc(-c2ccc(=O)n(Cc3cccc(-c4ncc(OCC5CCN(C(=O)C6CC7C=CC6C7)CC5)cn4)c3)n2)c1 (stereo not given)
[1]
  Activity: inactive
[2]
  Activity: inactive
[3]
  Activity: 22.4%

## N#Cc1cccc(-c2ccc(=O)n(Cc3cccc(-c4ncc(OCC5CCN(C(=O)CCCCNC(=O)CC67C[C@H]8C[C@@H](C6)C[C@@H](C7)C8)CC5)cn4)c3)n2)c1
[1]
  Activity: inactive
[2]
  Activity: inactive
[3]
  Activity: 2.8%

## COc1ccc(C(=O)NCCCCN2CCC(COc3cnc(-c4cccc(Cn5nc(-c6cccc(C#N)c6)ccc5=O)c4)nc3)CC2)cc1N1CCC(=O)NC1=O
[1]
  Activity: inactive
[2]
  Activity: inactive
[3]
  Activity: inactive

## COc1ccc(C(=O)N2CCC3(CCN(C(=O)CN4CCC(COc5cnc(-c6cccc(Cn7nc(-c8cccc(C#N)c8)ccc7=O)c6)nc5)CC4)C3)C2)cc1N1CCC(=O)NC1=O (stereo not given)
[1]
  Activity: inactive
[2]
  Activity: inactive
[3]
  Activity: 54.1%

## COc1ccc(C(=O)N2CCC3(CCN(C(=O)CN4CCC(COc5cnc(-c6cccc(Cn7nc(-c8cccc(C#N)c8)ccc7=O)c6)nc5)CC4)C3)CC2)cc1N1CCC(=O)NC1=O
[1]
  Activity: inactive
[2]
  Activity: inactive
[3]
  Activity: 74.6%

## N#Cc1cccc(-c2ccc(=O)n(Cc3cccc(-c4ncc(OCC5CCN(C(=O)C(C6CCCCC6)C6CCCCC6)CC5)cn4)c3)n2)c1
[1]
  Activity: inactive
[2]
  Activity: inactive
[3]
  Activity: inactive

## N#Cc1cccc(-c2ccc(=O)n(Cc3cccc(-c4ncc(OCC5CCN(C(=O)CCCCNC(=O)C(C6CCCCC6)C6CCCCC6)CC5)cn4)c3)n2)c1
[1]
  Activity: inactive
[2]
  Activity: inactive
[3]
  Activity: 0.9%

## COc1ccc(C(=O)N2CCC3(CCN(C(=O)CCN4CCC(COc5cnc(-c6cccc(Cn7nc(-c8cccc(C#N)c8)ccc7=O)c6)nc5)CC4)CC3)CC2)cc1N1CCC(=O)NC1=O
[1]
  Activity: inactive
[2]
  Activity: inactive
[3]
  Activity: 85.6%

## N#Cc1cccc(-c2ccc(=O)n(Cc3cccc(-c4ncc(OCC5CCN(C(=O)CCCCNC(=O)C6c7ccccc7-c7ccccc76)CC5)cn4)c3)n2)c1
[1]
  Activity: inactive
[2]
  Activity: inactive
[3]
  Activity: 4.1%
